The values below come from ChEMBL document CHEMBL1201862, “PubChem BioAssay data set” (2004).

Activity calls are given as the source filed them.

One assay concerns the target T1, Protein RecA (Mycobacterium tuberculosis, UniProt P9WHJ3).
T1 sequence (P9WHJ3 whole entry): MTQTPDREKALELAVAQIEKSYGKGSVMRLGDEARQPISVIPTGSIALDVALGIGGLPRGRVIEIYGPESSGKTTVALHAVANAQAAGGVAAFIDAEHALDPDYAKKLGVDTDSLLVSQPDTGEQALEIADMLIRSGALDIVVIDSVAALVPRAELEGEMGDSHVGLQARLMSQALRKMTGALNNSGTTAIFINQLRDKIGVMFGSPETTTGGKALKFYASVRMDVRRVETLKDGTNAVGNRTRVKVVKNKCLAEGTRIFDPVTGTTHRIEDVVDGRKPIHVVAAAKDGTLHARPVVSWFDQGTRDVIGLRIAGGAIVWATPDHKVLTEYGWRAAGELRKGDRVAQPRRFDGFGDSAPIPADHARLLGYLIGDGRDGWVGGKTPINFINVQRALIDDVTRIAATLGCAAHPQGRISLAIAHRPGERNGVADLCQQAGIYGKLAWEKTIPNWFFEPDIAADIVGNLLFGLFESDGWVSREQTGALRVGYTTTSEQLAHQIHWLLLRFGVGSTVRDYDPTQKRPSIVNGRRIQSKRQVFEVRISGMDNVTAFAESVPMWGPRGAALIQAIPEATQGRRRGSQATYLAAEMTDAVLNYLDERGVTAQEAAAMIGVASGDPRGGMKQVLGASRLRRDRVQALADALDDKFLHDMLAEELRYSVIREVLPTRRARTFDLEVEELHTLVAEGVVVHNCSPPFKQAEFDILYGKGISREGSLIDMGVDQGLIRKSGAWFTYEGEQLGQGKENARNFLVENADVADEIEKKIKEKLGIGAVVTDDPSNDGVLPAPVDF
The experiment in a line: Fluorescence Cell-Free Homogeneous Dose Retest to Identify Inhibitors of RecA-Intein Splicing Activity. [Related pubchem assays (depositor defined):AID2097, AID2223, AID489010, AID492950]. Format: functional.

The target of assay [1] is C-C chemokine receptor type 6 (Homo sapiens, UniProt P51684). The assay can be described thus: CCR6 receptor antagonists, dose response, cell-based, luminescent beta-arrestin readout (AID 504728). Format: functional.
Another assay concerns the target T2, Protein Tat (Human immunodeficiency virus type 1 group M subtype B (isolate HXB2)(HIV-1), UniProt P04608).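 Note: tat binding to TAR RNA read out by fluorescence polarization.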
T2 sequence (P04608 whole entry): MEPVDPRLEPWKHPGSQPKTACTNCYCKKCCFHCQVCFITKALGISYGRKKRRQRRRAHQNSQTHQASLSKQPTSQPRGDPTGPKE
Format: functional.

Assay [2] deals with T3, Replicative DNA helicase DnaB (Mycobacterium tuberculosis, UniProt P9WMR3).
T3 sequence (P9WMR3 whole entry): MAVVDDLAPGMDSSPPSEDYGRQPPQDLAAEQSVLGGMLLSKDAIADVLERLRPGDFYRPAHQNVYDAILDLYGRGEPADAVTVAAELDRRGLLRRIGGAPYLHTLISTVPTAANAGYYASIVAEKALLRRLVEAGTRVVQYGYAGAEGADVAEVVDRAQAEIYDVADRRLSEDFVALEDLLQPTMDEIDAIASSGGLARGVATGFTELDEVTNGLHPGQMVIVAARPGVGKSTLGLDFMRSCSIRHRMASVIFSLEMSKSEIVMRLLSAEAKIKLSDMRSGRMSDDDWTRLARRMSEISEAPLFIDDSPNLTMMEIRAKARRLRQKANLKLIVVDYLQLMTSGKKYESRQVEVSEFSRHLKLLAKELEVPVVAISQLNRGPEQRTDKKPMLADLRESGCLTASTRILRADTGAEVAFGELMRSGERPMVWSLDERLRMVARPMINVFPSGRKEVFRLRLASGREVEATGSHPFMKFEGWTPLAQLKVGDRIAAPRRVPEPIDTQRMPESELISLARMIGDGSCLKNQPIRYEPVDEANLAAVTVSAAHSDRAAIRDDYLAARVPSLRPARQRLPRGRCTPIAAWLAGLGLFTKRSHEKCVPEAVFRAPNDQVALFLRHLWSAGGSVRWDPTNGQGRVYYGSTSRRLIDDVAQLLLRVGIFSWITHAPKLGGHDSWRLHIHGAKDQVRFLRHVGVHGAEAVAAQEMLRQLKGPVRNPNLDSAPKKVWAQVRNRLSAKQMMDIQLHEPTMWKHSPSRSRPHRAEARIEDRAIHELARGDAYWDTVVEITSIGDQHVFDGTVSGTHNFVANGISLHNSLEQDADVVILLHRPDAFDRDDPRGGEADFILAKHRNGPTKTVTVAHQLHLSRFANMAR
The assay can be described thus: DnaB intein splicing inhibitors, dose response, biochemical, cell-free fluorescence (AID 449749). Format: functional.

For the next assay, the target named is Nonstructural protein 1 (Influenza A virus, UniProt Q194T2). Format: functional, Influenza A virus (A/California/07/2009(H1N1)).
Another assay deals with T4, Hexokinase HKDC1 (Homo sapiens, UniProt Q2TB90).
T4 sequence (Q2TB90 whole entry): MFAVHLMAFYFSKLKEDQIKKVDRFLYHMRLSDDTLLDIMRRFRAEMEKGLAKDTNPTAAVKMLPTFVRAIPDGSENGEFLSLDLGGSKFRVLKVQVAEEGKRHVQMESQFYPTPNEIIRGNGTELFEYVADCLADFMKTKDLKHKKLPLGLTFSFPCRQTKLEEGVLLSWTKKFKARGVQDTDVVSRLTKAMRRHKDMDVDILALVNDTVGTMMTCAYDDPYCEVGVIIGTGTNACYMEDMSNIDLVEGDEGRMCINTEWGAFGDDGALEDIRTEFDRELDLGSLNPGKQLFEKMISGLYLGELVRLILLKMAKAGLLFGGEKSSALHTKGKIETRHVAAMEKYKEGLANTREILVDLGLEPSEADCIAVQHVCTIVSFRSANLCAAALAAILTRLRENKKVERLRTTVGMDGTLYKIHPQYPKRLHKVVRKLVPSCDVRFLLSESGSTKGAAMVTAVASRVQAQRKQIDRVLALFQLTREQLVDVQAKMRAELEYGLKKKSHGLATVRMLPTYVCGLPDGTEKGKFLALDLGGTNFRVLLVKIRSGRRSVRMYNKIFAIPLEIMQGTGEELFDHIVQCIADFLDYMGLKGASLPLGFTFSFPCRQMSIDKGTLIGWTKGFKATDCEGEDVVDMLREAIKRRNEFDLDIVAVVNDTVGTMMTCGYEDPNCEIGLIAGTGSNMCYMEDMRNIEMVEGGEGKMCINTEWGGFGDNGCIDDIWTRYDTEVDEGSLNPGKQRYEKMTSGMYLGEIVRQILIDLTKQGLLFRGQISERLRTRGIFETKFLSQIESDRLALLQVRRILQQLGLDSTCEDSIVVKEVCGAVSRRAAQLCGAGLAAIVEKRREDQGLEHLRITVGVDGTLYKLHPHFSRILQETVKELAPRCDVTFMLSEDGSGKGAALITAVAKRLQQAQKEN
The assay can be described thus: HKDC1 hexokinase inhibitors, dose response, biochemical, W721R variant (AID 504729). Format: functional.

In assay [3] the target is Eukaryotic translation initiation factor 4E (Mus musculus, UniProt P63073). The experiment in a line: eIF4E–eIF4G protein interaction inhibitors, dose response, biochemical, TR-FRET (AID 855).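 Note: potency for disrupting eIF4E binding to eIF4GI seen as loss of FRET.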 Format: functional.
Assay [4] is described as follows: growth suppression of beta-catenin-knockout colon cells, dose response, cell-based, HCT116, human colon tumor (AID 1045).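 Note: HCT116 colon tumor cells with beta catenin knocked out; cells exposed to compound for 60 hours.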 Format: functional.
The next assay concerns HT-1080. The assay can be described thus: cytotoxicity in HT1080 fibrosarcoma cells, cell-based, fluorescence readout (AID 620). The settings on record: Homo sapiens. Format: functional.
The target of another assay is Beta-galactosidase (Escherichia coli, UniProt Q8VNN2). The assay can be described thus: beta-galactosidase enzyme inhibitors and activators, dose response, artefact control for CCR6 antagonist project, biochemical, E. coli enzyme, set 3 (AID 504712). Format: functional.
A short description of assay [5]: growth suppression of PTEN-null colon cells, dose response, cell-based, HCT116 PTEN knockout (AID 1047).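 Note: HCT116 colon tumor cells with PTEN knocked out; cells exposed to compound for 60 hours before readout; potency for loss of cell viability measured by luminescence.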 Format: functional.
The target of assay [6] is E3 ubiquitin-protein ligase Mdm2 (Homo sapiens, UniProt Q00987). The experiment in a line: enhancers of MDM2-luciferase reporter signal, concentration-effect titration, project on inhibitors of MDM2 ubiquitin ligase, cellular assay, luminescent readout, 384-well plate format (AID 1394).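 Note: MDM2 E3 inhibitors raise luminescence so EC50 is for signal enhancement.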 Format: functional.
Another assay addresses Beta-arrestin-1 (Homo sapiens, UniProt P49407). The experiment in a line: inhibitors of arrestin peptide binding to AP2, dose response, biochemical, cherry pick 1, beta2-adaptin appendage, flow cytometry (AID 588783). Format: functional.
Assay [7] concerns the target Luciferin 4-monooxygenase (Photinus pyralis, UniProt P08659). The assay can be described thus: Counter Screen for Luciferase-based Assay Positives. [Related pubchem assays: 620, 618, 411 ].
The target in assay [8] is T5, Probable nicotinate-nucleotide adenylyltransferase (Staphylococcus aureus (strain N315), UniProt P65502). Format: functional, Staphylococcus aureus subsp. aureus N315.
In assay [9] the target is T5, Probable nicotinate-nucleotide adenylyltransferase. Format: functional, Staphylococcus aureus subsp. aureus N315. The settings on record: read-out: IC50_Mean.
The next assay has as its target DNA topoisomerase (Yersinia pestis, UniProt A0A2S9PM60). The assay can be described thus: Y. pestis Topo-I inhibitors, cleavage product readout, dose response, biochemical, cherry-pick (AID 588525).
The target of assay [10] is T6, Microphthalmia-associated transcription factor (Homo sapiens, UniProt O75030).
T6 sequence (O75030 whole entry): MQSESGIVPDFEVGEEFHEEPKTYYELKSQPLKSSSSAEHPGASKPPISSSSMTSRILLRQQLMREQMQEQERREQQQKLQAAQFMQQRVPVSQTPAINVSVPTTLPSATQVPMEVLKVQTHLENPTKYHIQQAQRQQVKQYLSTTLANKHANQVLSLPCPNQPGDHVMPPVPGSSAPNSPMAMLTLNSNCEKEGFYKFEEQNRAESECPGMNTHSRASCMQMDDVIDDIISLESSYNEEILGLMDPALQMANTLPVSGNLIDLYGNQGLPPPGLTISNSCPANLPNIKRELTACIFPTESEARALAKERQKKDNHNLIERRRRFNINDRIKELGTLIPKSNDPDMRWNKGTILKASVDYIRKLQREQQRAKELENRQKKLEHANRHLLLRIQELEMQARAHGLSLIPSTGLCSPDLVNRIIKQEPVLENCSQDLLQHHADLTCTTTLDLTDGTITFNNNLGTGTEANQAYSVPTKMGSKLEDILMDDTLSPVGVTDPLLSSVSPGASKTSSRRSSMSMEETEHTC
The assay can be described thus: TRPM1 promoter luciferase signal decrease, dose response, MITF inhibitor project, cell-based, SK-MEL-5, cherry-picked, set 3 (AID 493073).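 Note: SK-MEL-5 melanoma cells with luciferase driven by the MITF target TRPM1 promoter.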 Format: functional.

Assay [11] relates to A-375. The experiment in a line: A375 melanoma cell viability reduction, dose response, counter-screen for MITF modulator project, cherry-pick samples, set 2 (AID 540335). Format: functional, cell-based. Conditions: Homo sapiens.
The target of a further assay is T7, Cysteine protease ATG4B (Homo sapiens, UniProt Q9Y4P1).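 Note: Fluorescence-based dose-response confirmation assay measuring inhibition of ATG4B activity.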
T7 sequence (Q9Y4P1 whole entry): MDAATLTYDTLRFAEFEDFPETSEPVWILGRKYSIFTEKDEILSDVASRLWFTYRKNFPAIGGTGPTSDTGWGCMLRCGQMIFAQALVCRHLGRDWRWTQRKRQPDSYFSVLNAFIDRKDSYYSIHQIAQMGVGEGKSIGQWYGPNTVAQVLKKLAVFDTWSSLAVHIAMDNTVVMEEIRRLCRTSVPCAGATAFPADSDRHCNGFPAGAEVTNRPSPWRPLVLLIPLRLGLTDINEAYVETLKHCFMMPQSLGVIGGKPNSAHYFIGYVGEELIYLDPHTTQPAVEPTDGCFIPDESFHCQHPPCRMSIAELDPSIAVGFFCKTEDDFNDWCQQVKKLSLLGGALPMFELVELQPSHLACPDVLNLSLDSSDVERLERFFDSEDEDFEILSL
Format: functional.

The next assay deals with Phospholipase A2 (Homo sapiens, UniProt P04054). Format: functional.
The target of another assay is Troponin, cardiac muscle (Homo sapiens, UniProt P19429+P45379+P63316). The experiment in a line: Fluorescence-based biochemical high throughput dose response assay for activators of the calcium sensitivity of cardiac Regulated Thin Filaments (RTF). [Related pubchem assays (depositor defined):AID493008, AID493018, AID504382, AID504383]. Format: protein-complex assay.

Assay [12] deals with A-375. The assay can be described thus: MITF: Counter assay: A375 proliferation Measured in Cell-Based System Using Plate Reader - 2084-03_Inhibitor_Dose_DryPowder_Activity. [Related pubchem assays (depositor defined):AID488944]. Format: functional. The settings on record: Homo sapiens.
The test system of another assay is HeLa. The experiment in a line: HeLa cell cytotoxicity, dose response, cytotoxicity control for MITF activator project, CellTiter-Glo luminescence, cherry-pick samples (AID 540259). Format: functional, cell-based. The settings on record: Homo sapiens.
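Throughout, for IC50 Mean: confirmatory dose-response retesting of NadD inhibitor hits first found in an ultra-high-throughput screen.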

For the molecule `O=C1C(Cl)=C(N2CCCCC2)C(=O)C(Cl)=C1c1cnc(N2CCCCC2)s1`, the EC50 at Protein RecA is 0.766 µM (active); in assay [4] it was 2.75 µM (active); with HT-1080 it was 45.9 µM (active); in assay [5] it was 3.45 µM (active); in assay [6], 2.42 µM (active); in [7] it was 4.4 µM (active). For the same molecule, the IC50 in assay [1] was > 66.6 µM (inactive); at Protein Tat, 1.99 µM (inconclusive); on Nonstructural protein 1, 21.4 µM (active); on Hexokinase HKDC1, 11.4 µM (active); in assay [3] it was > 64 µM (inactive); on Beta-galactosidase, > 66.6 µM (inactive). In addition, the IC50 on Beta-arrestin-1 was 14.1 µM (active). In addition, the AC50 in [2] is > 380 µM (inactive).
For `O=C(Nc1ccn(CCCN(CCCn2ccc(NC(=O)OCc3ccccc3)nc2=O)CCc2cc3ccccc3[nH]2)c(=O)n1)OCc1ccccc1`, the results for the IC50 in [8] and in [9] were 15.9 µM (active) and 40.7 µM (active), respectively. Moreover, on DNA topoisomerase, the AC50 is 2.54 µM (active).
For the molecule `Cc1cc(C=C2C(=O)c3ccccc3C2=O)c(C)n1-c1ccccc1`, the AC50 in assay [10] was 3.78 µM (active); in the assay on A-375 [11], > 11 µM (active); with A-375 [12], > 11 µM (active). The results for the IC50 at Cysteine protease ATG4B and at Phospholipase A2 were 11 µM (active) and 6.96 µM (active), respectively. Also, the EC50 at Troponin, cardiac muscle is > 7.94 µM (active).
In the case of `Cc1ccn2c(C(=O)c3ccc(Cl)cc3)cnc2c1`, the half-maximal activity concentration (AC50) with HeLa is 37 µM (active).
